According to PMC5682218 (European journal of medicinal chemistry, 2017):
Where a name gives a salt, the structure may show the parent alone. Read-outs that look alike come from different tables or passages of the source.

Legend:
HIV RT polymerase (pol) = HIV RT polymerase (pol) (Human immunodeficiency virus type 1 group M subtype B, UniProt P03366); experiment: RT polymerase assay; type: biochemical, HIV-1
P4R5 cells = experiment: Cytotoxicity in cell-based MAGI assay; details: human
[1] = target: HIV RT-associated RNase H (Human immunodeficiency virus type 1 group M subtype B, UniProt P03366); experiment: RNH assay: HIV RT-associated RNase H inhibition, HTS-1 RNA/DNA substrate; type: biochemical, HIV-1
HIV integrase = HIV integrase (Human immunodeficiency virus type 1 group M subtype B, UniProt P03366); experiment: HIV IN assay; type: biochemical
HIV-1 = experiment: MAGI antiviral assay in P4R5 indicator cells; type: cell-based; details: Human immunodeficiency virus 1, read-out: MAGI Antiviral EC50
[2] = Cytotoxicity in cell-based MAGI assay; details: human, P4R5 indicator cells (MAGI assay)
[3] = read-out: RT IC50 Pol, concentration inhibiting the target enzyme by 50%
[4] = concentration inhibiting the target enzyme by 50%

Compound	IC50 (HIV RT polymerase (pol)) [µM]	IC50 [1] [µM]	also measured
3-Hydroxy-1,5,6,7-tetrahydro-2H-cyclopenta[4, 5]thieno[2,3-d]pyrimidine-2,4(3H)-dione [Compound 11i]			IC50 (HIV RT polymerase (pol); [3]): > 10 µM; CC50 (P4R5 cells): > 100 µM
3-Hydroxy-5,6,7,8-tetrahydrobenzo[4, 5]thieno[2,3-d]pyrimidine-2,4(1H,3H)-dione [Compound 11j]			IC50 (HIV RT polymerase (pol); [3]): > 10 µM; CC50 (P4R5 cells): > 100 µM
O=c1[nH]c2cc(-c3ccccc3)ccc2c(=O)n1O [Compound 9a, 3-Hydroxy-7-phenylquinazoline-2,4(1H,3H)-dione]	> 10		fold increase in RNase H inhibition ([1]; vs. compound 14): 6.5 fold; fold decrease in INST inhibition (HIV integrase; vs. compound 14): 5.5 fold
O=c1[nH]c2cc(-c3ccc(Cl)cc3)ccc2c(=O)n1O [Compound 9b, 7-(4-Chlorophenyl)-3-hydroxyquinazoline-2,4(1H,3H)-dione]	> 10		
O=c1[nH]c2cc(-c3ccccc3)sc2c(=O)n1O [Compound 10a, 3-Hydroxy-6-phenylthieno [3,2-d]pyrimidine-2,4(1H,3H)-dione]	> 10	0.1 ± 0.06	RT IC50 Pol (HIV RT polymerase (pol); [4]): no RT pol inhibition
O=c1[nH]c2cc(-c3ccc(F)cc3)sc2c(=O)n1O [Compound 10b, 6-(4-Fluorophenyl)-3-hydroxythieno[3,2-d]pyrimidine-2,4(1H,3H)-dione]	> 10		
O=c1[nH]c2cc(-c3ccc(Cl)cc3)sc2c(=O)n1O [Compound 10c, 6-(4-Chlorophenyl)-3-hydroxythieno[3,2-d]pyrimidine-2,4(1H,3H)-dione]	> 10		
O=c1[nH]c2sc(-c3ccccc3)cc2c(=O)n1O [Compound 11a, 3-Hydroxy-6-phenylthieno[2,3-d]pyrimidine-2,4(1H,3H)-dione]	> 10		
O=c1[nH]c2sc(Cc3ccccc3)cc2c(=O)n1O [Compound 11b, 6-Benzyl-3-hydroxythieno[2,3-d]pyrimidine-2,4(1H,3H)-dione]	> 10		
O=c1[nH]c2scc(-c3ccccc3)c2c(=O)n1O [Compound 11c, 3-Hydroxy-5-phenylthieno[2,3-d]pyrimidine-2,4(1H,3H)-dione]	> 10	0.1 ± 0.03	
O=c1[nH]c2scc(-c3ccc(Cl)cc3)c2c(=O)n1O [Compound 11d, 5-(4-Chlorophenyl)-3-hydroxythieno[2,3-d]pyrimidine-2,4(1H,3H)-dione]	> 10		RT IC50 Pol (HIV RT polymerase (pol); [4]): did not inhibit RT polymerase
O=c1[nH]c2sccc2c(=O)n1O [Compound 11e, 3-Hydroxythieno[2,3-d]pyrimidine-2,4(1H,3H)-dione]	> 10		
Cc1csc2[nH]c(=O)n(O)c(=O)c12 [Compound 11f, 3-Hydroxy-5-methylthieno[2,3-d]pyrimidine-2,4(1H,3H)-dione]	> 10	0.1 ± 0.02	
Cc1sc2[nH]c(=O)n(O)c(=O)c2c1C [Compound 11g, 3-Hydroxy-5,6-dimethylthieno[2,3-d]pyrimidine-2,4(1H,3H)-dione]	> 10	0.1 ± 0.03	
Cc1c(C(=O)O)sc2[nH]c(=O)n(O)c(=O)c12 [Compound 11h, 3-Hydroxy-5-methyl-2,4-dioxo-1,2,3,4-tetrahydrothieno[2,3-d]pyrimidine-6-carboxylic acid]	> 10	0.1 ± 0.02	
CCN1CCc2c(sc3[nH]c(=O)n(O)c(=O)c23)C1 [Compound 11k, 7-Ethyl-3-hydroxy-5,6,7,8-tetrahydropyrido[4′,3′:4,5]thieno[2,3-d]pyrimidine-2,4(1H,3H)-dione hydrochloride]	> 10	0.2 ± 0.03	IC50 (HIV integrase): > 100 µM; EC50 (HIV-1): > 20 µM; CC50 at 72 h [2]: > 100 µM
O=c1[nH]c2sc3c(c2c(=O)n1O)CCNC3 [Compound 11l, 3-Hydroxy-5,6,7,8-tetrahydropyrido[4′,3′:4,5]thieno[2,3-d]pyrimidine-2,4(1H,3H)-dione hydrobromide]	> 10	0.3 ± 0.03	IC50 (HIV integrase): 17 ± 3 µM; EC50 (HIV-1): > 20 µM; CC50 at 72 h [2]: > 100 µM
O=c1[nH]c2sc3c(c2c(=O)n1O)CCN(Cc1ccccc1)C3 [Compound 11m, 7-Benzyl-3-hydroxy-5,6,7,8-tetrahydropyrido[4′,3′:4,5]thieno[2,3-d]pyrimidine-2,4(1H,3H)-dione hydrochloride]	> 10	0.1 ± 0.04	IC50 (HIV integrase): 8.3 ± 0.8 µM; EC50 (HIV-1): > 20 µM; CC50 at 72 h [2]: > 100 µM
O=C1Cc2cc(-c3ccccc3)ccc2C(=O)N1O [Compound 14, 2-Hydroxy-6-phenylisoquinoline-1,3(2H,4H)-dione]	> 10		RT IC50 Pol (HIV RT polymerase (pol); [4]): without inhibiting RT pol
